US10266609B2, “Immunomodulating beta-1,6-D-glucans” (Innate Biotherapeutics, LLC, priority 2014, dated 2019)

System: Anti-β-1,6-Glucan IgG antibodies (affinity purified from IVIG, Baxter)
Test: ELISA: binding of oligosaccharides to anti-β-1,6-glucan antibodies; also: key: a plus (+) sign indicates that the glucan was active in the assay; a minus (−) sign indicates that the glucan was not active; the '+/−' symbol indicates inconclusive results
Settings: plate coated with oligosaccharide in PBS; 40 ug/mL anti-Beta 1,6 Glucan IgG; anti-human IgG-HRP, TMB, absorbance at 620 nm
Method: Binding of oligosaccharides to anti-β-1,6-glucan antibodies is performed as described in the following protocol.
• 1. […] Anti-β-1,6-Glucan IgG antibodies (affinity purified from IVIG, Baxter) • 6. […] PBS-Tween buffer (PH 7.2, 0.05% Tween 20, Kpl cat #51-12-01) II. Method: Detection of Anti-Beta Glucan IgG by ELISA • 1. Coat plate with oligosaccharides in PBS overnight at 4° C. • 2. Wash 3 times with 250 uL of PBS-Tween • 3. Empty plate • 4. Block plate with 200 uL of Casein for 1 hour at room temperature • 5. Empty plate • 6. Add 40 ug/mL anti-Beta 1,6 Glucan IgG (4 ug/well) in Casein • 7. Incubate for 45 min at room temperature • 8. Wash 3 times with 250 uL of PBS-Tween • 9. Empty plate • 10. Add detection antibody: anti-human IgG-HRP at 1:5000—in casein. Incubate for 45 min at room temperature in the dark • 11. Wash 5 times with 250 uL of PBS-Tween • 12. Empty plate • 13. Add 100 uL of one step ultra TMB • 14. Measure the absorbance at 620 nm every 1 min for 60 min Tables 1-3 provide ELISA assay data for certain glucan compounds.

ELISA assay data: glucan active in detection of anti-beta glucan IgG, +:
OC[C@H]1O[C@@H](OC[C@H]2O[C@@H](OC[C@H]3O[C@@H](OC[C@H]4O[C@@H](OC[C@H]5O[C@@H](OC[C@H]6O[C@@H](OC[C@H]7O[C@@H](OC[C@H]8O[C@@H](OC[C@H]9O[C@@H](OC[C@H]%10OC(O)[C@H](O)[C@@H](O)[C@@H]%10O)[C@H](O)[C@@H](O)[C@@H]9O)[C@H](O)[C@@H](O)[C@@H]8O)[C@H](O)[C@@H](O)[C@@H]7O)[C@H](O)[C@@H](O)[C@@H]6O)[C@H](O)[C@@H](O)[C@@H]5O)[C@H](O)[C@@H](O)[C@@H]4O)[C@H](O)[C@@H](O)[C@@H]3O)[C@H](O)[C@@H](O)[C@@H]2O)[C@H](O)[C@@H](O)[C@@H]1O (stereo partly drawn) [OH, n=10, [O-β-D-glucopyranosyl-1,6-]9-D-glucose]
OC[C@H]1O[C@@H](OC[C@H]2O[C@@H](OC[C@H]3O[C@@H](OC[C@H]4O[C@@H](OC[C@H]5O[C@@H](OC[C@H]6O[C@@H](OC[C@H]7O[C@@H](OC[C@H]8O[C@@H](OC[C@H]9O[C@@H](OC[C@H]%10O[C@@H](OC[C@H]%11OC(O)[C@H](O)[C@@H](O)[C@@H]%11O)[C@H](O)[C@@H](O)[C@@H]%10O)[C@H](O)[C@@H](O)[C@@H]9O)[C@H](O)[C@@H](O)[C@@H]8O)[C@H](O)[C@@H](O)[C@@H]7O)[C@H](O)[C@@H](O)[C@@H]6O)[C@H](O)[C@@H](O)[C@@H]5O)[C@H](O)[C@@H](O)[C@@H]4O)[C@H](O)[C@@H](O)[C@@H]3O)[C@H](O)[C@@H](O)[C@@H]2O)[C@H](O)[C@@H](O)[C@@H]1O (stereo partly drawn) [OH, n=11, [O-β-D-glucopyranosyl-1,6]10-D-glucose]
OC[C@H]1O[C@@H](OC[C@H]2O[C@@H](OC[C@H]3O[C@@H](OC[C@H]4O[C@@H](OC[C@H]5O[C@@H](OC[C@H]6O[C@@H](OC[C@H]7O[C@@H](OC[C@H]8O[C@@H](OC[C@H]9O[C@@H](OC[C@H]%10O[C@@H](OC[C@H]%11O[C@@H](OC[C@H]%12OC(O)[C@H](O)[C@@H](O)[C@@H]%12O)[C@H](O)[C@@H](O)[C@@H]%11O)[C@H](O)[C@@H](O)[C@@H]%10O)[C@H](O)[C@@H](O)[C@@H]9O)[C@H](O)[C@@H](O)[C@@H]8O)[C@H](O)[C@@H](O)[C@@H]7O)[C@H](O)[C@@H](O)[C@@H]6O)[C@H](O)[C@@H](O)[C@@H]5O)[C@H](O)[C@@H](O)[C@@H]4O)[C@H](O)[C@@H](O)[C@@H]3O)[C@H](O)[C@@H](O)[C@@H]2O)[C@H](O)[C@@H](O)[C@@H]1O (stereo partly drawn) [OH, n=12, [O-β-D-glucopyranosyl-1,6-]11-D-glucose]
OC[C@H]1O[C@@H](OC[C@H]2O[C@@H](OC[C@H]3OC(OCCCl)[C@H](O)[C@@H](O)[C@@H]3O)[C@H](O)[C@@H](O)[C@@H]2O)[C@H](O)[C@@H](O)[C@@H]1O (stereo partly drawn) [α-O(CH2)2Cl, n=3, 2-chloroethyl [O-β-D-glucopyranosyl-1,6]2-D-glucopyranoside]
OC[C@H]1O[C@@H](OC[C@H]2O[C@@H](OC[C@H]3O[C@@H](OC[C@H]4OC(OCCCl)[C@H](O)[C@@H](O)[C@@H]4O)[C@H](O)[C@@H](O)[C@@H]3O)[C@H](O)[C@@H](O)[C@@H]2O)[C@H](O)[C@@H](O)[C@@H]1O (stereo partly drawn) [α-O(CH2)2Cl, n=4, 2-chloroethyl [O-β-D-glucopyranosyl-1,6]3-D-glucopyranoside]
OC[C@H]1O[C@@H](OC[C@H]2O[C@@H](OC[C@H]3O[C@@H](OC[C@H]4O[C@@H](OC[C@H]5O[C@H](OCCCl)[C@H](O)[C@@H](O)[C@@H]5O)[C@H](O)[C@@H](O)[C@@H]4O)[C@H](O)[C@@H](O)[C@@H]3O)[C@H](O)[C@@H](O)[C@@H]2O)[C@H](O)[C@@H](O)[C@@H]1O [α-O(CH2)2Cl, n=5, 2-chloroethyl [O-β-D-glucopyranosyl-1,6]4-D-glucopyranoside]
OC[C@H]1O[C@@H](OC[C@H]2O[C@@H](OC[C@H]3O[C@@H](OC[C@H]4O[C@@H](OC[C@H]5O[C@@H](OC[C@H]6OC(OCCCl)[C@H](O)[C@@H](O)[C@@H]6O)[C@H](O)[C@@H](O)[C@@H]5O)[C@H](O)[C@@H](O)[C@@H]4O)[C@H](O)[C@@H](O)[C@@H]3O)[C@H](O)[C@@H](O)[C@@H]2O)[C@H](O)[C@@H](O)[C@@H]1O (stereo partly drawn) [α-O(CH2)2Cl, n=6, 2-chloroethyl [O-β-D-glucopyranosyl-1,6]5-D-glucopyranoside]
OC[C@H]1O[C@@H](OC[C@H]2O[C@@H](OC[C@H]3O[C@@H](OC[C@H]4O[C@@H](OC[C@H]5O[C@@H](OC[C@H]6O[C@@H](OC[C@H]7OC(OCCCl)[C@H](O)[C@@H](O)[C@@H]7O)[C@H](O)[C@@H](O)[C@@H]6O)[C@H](O)[C@@H](O)[C@@H]5O)[C@H](O)[C@@H](O)[C@@H]4O)[C@H](O)[C@@H](O)[C@@H]3O)[C@H](O)[C@@H](O)[C@@H]2O)[C@H](O)[C@@H](O)[C@@H]1O (stereo partly drawn) [α-O(CH2)2Cl, n=7, 2-chloroethyl [O-β-D-glucopyranosyl-1,6]6-D-glucopyranoside]
OC[C@H]1O[C@@H](OC[C@H]2O[C@@H](OC[C@H]3O[C@@H](OC[C@H]4O[C@@H](OC[C@H]5O[C@@H](OC[C@H]6O[C@@H](OC[C@H]7O[C@@H](OC[C@H]8O[C@H](OCCCl)[C@H](O)[C@@H](O)[C@@H]8O)[C@H](O)[C@@H](O)[C@@H]7O)[C@H](O)[C@@H](O)[C@@H]6O)[C@H](O)[C@@H](O)[C@@H]5O)[C@H](O)[C@@H](O)[C@@H]4O)[C@H](O)[C@@H](O)[C@@H]3O)[C@H](O)[C@@H](O)[C@@H]2O)[C@H](O)[C@@H](O)[C@@H]1O [α-O(CH2)2Cl, n=8, 2-chloroethyl [O-β-D-glucopyranosyl-1,6]7-D-glucopyranoside]
OC[C@H]1O[C@@H](OC[C@H]2O[C@@H](OC[C@H]3O[C@@H](OC[C@H]4O[C@@H](OC[C@H]5O[C@@H](OC[C@H]6O[C@@H](OC[C@H]7O[C@@H](OC[C@H]8O[C@@H](OC[C@H]9OC(OCCCl)[C@H](O)[C@@H](O)[C@@H]9O)[C@H](O)[C@@H](O)[C@@H]8O)[C@H](O)[C@@H](O)[C@@H]7O)[C@H](O)[C@@H](O)[C@@H]6O)[C@H](O)[C@@H](O)[C@@H]5O)[C@H](O)[C@@H](O)[C@@H]4O)[C@H](O)[C@@H](O)[C@@H]3O)[C@H](O)[C@@H](O)[C@@H]2O)[C@H](O)[C@@H](O)[C@@H]1O (stereo partly drawn) [α-O(CH2)2Cl, n=9, 2-chloroethyl [O-β-D-glucopyranosyl-1,6]8-D-glucopyranoside]
[N-]=[N+]=NCCOC1OC(COC2OC(COC3OC(CO)C(O)C(O)C3O)C(O)C(O)C2O)C(O)C(O)C1O (stereo not drawn) [α-O(CH2)2N3, n=3]
[N-]=[N+]=NCCO[C@H]1O[C@H](CO[C@@H]2O[C@H](CO[C@@H]3O[C@H](CO[C@@H]4O[C@H](CO)[C@@H](O)[C@H](O)[C@H]4O)[C@@H](O)[C@H](O)[C@H]3O)[C@@H](O)[C@H](O)[C@H]2O)[C@@H](O)[C@H](O)[C@H]1O [α-O(CH2)2N3, n=4, 1-O-(2-azidoethyl)-6-[O-β-D-glucopyranosyl-1,6]3-α-D-glucopyranoside]
[N-]=[N+]=NCCOC1OC(COC2OC(COC3OC(COC4OC(COC5OC(CO)C(O)C(O)C5O)C(O)C(O)C4O)C(O)C(O)C3O)C(O)C(O)C2O)C(O)C(O)C1O (stereo not drawn) [α-O(CH2)2N3, n=5]
[N-]=[N+]=NCCOC1OC(COC2OC(COC3OC(COC4OC(COC5OC(COC6OC(CO)C(O)C(O)C6O)C(O)C(O)C5O)C(O)C(O)C4O)C(O)C(O)C3O)C(O)C(O)C2O)C(O)C(O)C1O (stereo not drawn) [α-O(CH2)2N3, n=6]
[N-]=[N+]=NCCOC1OC(COC2OC(COC3OC(COC4OC(COC5OC(COC6OC(COC7OC(CO)C(O)C(O)C7O)C(O)C(O)C6O)C(O)C(O)C5O)C(O)C(O)C4O)C(O)C(O)C3O)C(O)C(O)C2O)C(O)C(O)C1O (stereo not drawn) [α-O(CH2)2N3, n=7]
[N-]=[N+]=NCCOC1OC(COC2OC(COC3OC(COC4OC(COC5OC(COC6OC(COC7OC(COC8OC(CO)C(O)C(O)C8O)C(O)C(O)C7O)C(O)C(O)C6O)C(O)C(O)C5O)C(O)C(O)C4O)C(O)C(O)C3O)C(O)C(O)C2O)C(O)C(O)C1O (stereo not drawn) [α-O(CH2)2N3, n=8]
[N-]=[N+]=NCCOC1OC(COC2OC(COC3OC(COC4OC(COC5OC(COC6OC(COC7OC(COC8OC(COC9OC(CO)C(O)C(O)C9O)C(O)C(O)C8O)C(O)C(O)C7O)C(O)C(O)C6O)C(O)C(O)C5O)C(O)C(O)C4O)C(O)C(O)C3O)C(O)C(O)C2O)C(O)C(O)C1O (stereo not drawn) [α-O(CH2)2N3, n=9]
[N-]=[N+]=NCCO[C@@H]1O[C@H](CO[C@@H]2O[C@H](CO[C@@H]3O[C@H](CO[C@@H]4O[C@H](CO[C@@H]5O[C@H](CO)[C@@H](O)[C@H](O)[C@H]5O)[C@@H](O)[C@H](O)[C@H]4O)[C@@H](O)[C@H](O)[C@H]3O)[C@@H](O)[C@H](O)[C@H]2O)[C@@H](O)[C@H](O)[C@H]1O [β-O(CH2)2N3, n=5, 2-azidoethyl [O-β-D-glucopyranosyl-1,6]4-β-D-glucopyranoside]
